Data: patent US6423342B1, “Process for the preparation of a solid pharmaceutical dosage form” (R. P. Scherer Corporation, priority 1995, dated 2002)
Counter-ions that a name gives are not always drawn.

Key:
Format in all cases: physicochemical
[1] = Effect of pH modification (citric acid level) on stability of selegiline hydrochloride fast-dispersing dosage forms stored at 40° C./80% relative humidity; set-up: unit not given beside the values
Description: Gelatin (720 g) and mannitol (540 g) were dispersed in a portion of purified water (15.73 kg) by mixing thoroughly in the bowl of a vacuum mixer. The remaining water (1.5 litres) was added under vacuum while mixing using an anchor stirrer. The mix was then heated to 40° C.±2° C. and homogenized for ten minutes. The mix was cooled down to room temperature. When cooled, a 4500 g portion of the mix was removed into a stainless steel vessel and glycine (360 g), aspartame (90 g), grapefruit flavor (54 g), Opatint yellow (54 g) and citric acid (90 g) were then added sequentially to this portion while homogenizing using a bench top homogenizer. The remainder of the mix was transferred into a second stainless steel vessel. Selegiline hydrochloride (360 g) was then added to the mix in the second vessel and the mix homogenized for ten minutes using a bench top mixer to dissolve the drug. Once dispersion of the coloring agent was complete, the portion of the mix removed to the first vessel was returned to the mixer bowl together with the homogenized mix from the second vessel. The combined mixes were then mixed for at least 20 minutes. The bulk dispersion was then homogenized to ensure that mixing was complete.
(§1) 250 mg of the selegiline hydrochloride 2.0% dispersion formed in (a) above was dosed into each one of a series of pre-formed blister pockets having a pocket diameter of 12-mm. The blister laminate comprised 200 μm PVC/30 μm PE/PVDC 90 g per square metre. The product was frozen immediately in a liquid nitrogen freeze tunnel. The frozen product was then stored below −20° C. for a minimum of 24 hours prior to freeze-drying in a freeze drier using a drying temperature of +20° C. and a chamber pressure of 0.5 mbar. The freeze-dried units were then inspected for the presence of critical defects and the remainder of the batch sealed with lidding foil consisting of a paper/foil laminate (20 μm aluminium). Each blister was then coded with a batch number and over-wrapped in a preformed sachet by placing the blister in the sachet and sealing the open end of the sachet completely. Each sachet was then labeled with the product name, batch number, date of manufacture and suppliers name.
A series of dosage forms were manufactured as described in Example 1 but the quantity of citric acid used was varied. The dosage forms were then stored at 40° C./80% relative humidity for up to 7 weeks and the quantity of selegiline hydrochloride in these dosage forms was assayed at regular intervals.

[2] = Physical properties of the dosage form at varied citric acid level; conditions: citric acid levels higher than 0.5%; causing, for instance, cracking and base melting
Description: It can be seen that a minimum level of 0.5% citric acid is required to inhibit this loss of selegiline.

[3] = Solution pH of the dispersion at varied citric acid concentration
[4] = Effect of storage in frozen state prior to drying on selegiline HCl assay of fast-dispersing dosage forms
Description: as §1
Two batches of selegiline fast-dispersing dosage forms manufactured as described in Example I were stored at different temperatures in the frozen state prior to drying.

Compound: C#CCN(C)C(C)Cc1ccccc1 (single isomer, unassigned; (-)) [selegiline hydrochloride, (−)-N,α-dimethyl-N-2-propynylphenethylamine]
- quantity of selegiline hydrochloride in dosage form ([1]; citric acid 0 % w/w, solution pH 5.38, 1 week at 40° C./80% relative humidity): 3.86
- quantity of selegiline hydrochloride in dosage form ([1]; citric acid 0 % w/w, solution pH 5.38, 2 week at 40° C./80% relative humidity): 3.31
- quantity of selegiline hydrochloride in dosage form ([1]; citric acid 0 % w/w, solution pH 5.38, 4 week at 40° C./80% relative humidity): 3.32
- quantity of selegiline hydrochloride in dosage form ([1]; citric acid 0 % w/w, solution pH 5.38, Time = 0): 4.79
- quantity of selegiline hydrochloride in dosage form ([1]; citric acid 0.25 % w/w, solution pH 4.21, 1 week at 40° C./80% relative humidity): 4.70
- quantity of selegiline hydrochloride in dosage form ([1]; citric acid 0.25 % w/w, solution pH 4.21, 2 week at 40° C./80% relative humidity): 4.67
- quantity of selegiline hydrochloride in dosage form ([1]; citric acid 0.25 % w/w, solution pH 4.21, 4 week at 40° C./80% relative humidity): 4.74
- quantity of selegiline hydrochloride in dosage form ([1]; citric acid 0.25 % w/w, solution pH 4.21, 7 week at 40° C./80% relative humidity): 4.65
- quantity of selegiline hydrochloride in dosage form ([1]; citric acid 0.25 % w/w, solution pH 4.21, Time = 0): 4.95
- quantity of selegiline hydrochloride in dosage form ([1]; citric acid 0.50 % w/w, solution pH 3.82, 1 week at 40° C./80% relative humidity): 4.98
- quantity of selegiline hydrochloride in dosage form ([1]; citric acid 0.50 % w/w, solution pH 3.82, 2 week at 40° C./80% relative humidity): 4.98
- quantity of selegiline hydrochloride in dosage form ([1]; citric acid 0.50 % w/w, solution pH 3.82, 4 week at 40° C./80% relative humidity): 4.98
- quantity of selegiline hydrochloride in dosage form ([1]; citric acid 0.50 % w/w, solution pH 3.82, 7 week at 40° C./80% relative humidity): 4.96
- quantity of selegiline hydrochloride in dosage form ([1]; citric acid 0.50 % w/w, solution pH 3.82, Time = 0): 5.05
- quantity of selegiline hydrochloride in dosage form ([1]; citric acid 1.0 % w/w, solution pH 3.45, 1 week at 40° C./80% relative humidity): 5.03
- quantity of selegiline hydrochloride in dosage form ([1]; citric acid 1.0 % w/w, solution pH 3.45, 2 week at 40° C./80% relative humidity): 5.04
- quantity of selegiline hydrochloride in dosage form ([1]; citric acid 1.0 % w/w, solution pH 3.45, 4 week at 40° C./80% relative humidity): 5.05
- quantity of selegiline hydrochloride in dosage form ([1]; citric acid 1.0 % w/w, solution pH 3.45, 7 week at 40° C./80% relative humidity): 5.00
- quantity of selegiline hydrochloride in dosage form ([1]; citric acid 1.0 % w/w, solution pH 3.45, Time = 0): 5.07
- quantity of selegiline hydrochloride in dosage form ([1]; citric acid 2.0 % w/w, solution pH 3.11, 1 week at 40° C./80% relative humidity): 4.99
- quantity of selegiline hydrochloride in dosage form ([1]; citric acid 2.0 % w/w, solution pH 3.11, 2 week at 40° C./80% relative humidity): 5.01
- quantity of selegiline hydrochloride in dosage form ([1]; citric acid 2.0 % w/w, solution pH 3.11, 4 week at 40° C./80% relative humidity): 5.02
- quantity of selegiline hydrochloride in dosage form ([1]; citric acid 2.0 % w/w, solution pH 3.11, 7 week at 40° C./80% relative humidity): 4.96
- quantity of selegiline hydrochloride in dosage form ([1]; citric acid 2.0 % w/w, solution pH 3.11, Time = 0): 5.04
- effect on the physical properties of the dosage form [2]: deleterious effect
- Solution pH ([3]; Conc. of citric acid 0 % w/w): 5.38
- Solution pH ([3]; Conc. of citric acid 0.25 % w/w): 4.21
- Solution pH ([3]; Conc. of citric acid 0.50 % w/w): 3.82
- Solution pH ([3]; Conc. of citric acid 1.0 % w/w): 3.45
- Solution pH ([3]; Conc. of citric acid 2.0 % w/w): 3.11
- Assay Selegiline HCI ([4]; Frozen storage temperature −20 ° C. prior to drying, 2 week): 4.97 mg
- Assay Selegiline HCI ([4]; Frozen storage temperature −20 ° C. prior to drying, 4 week): 4.98 mg
- Assay Selegiline HCI ([4]; Frozen storage temperature −20 ° C. prior to drying, Time = 0): 5.01 mg
- Assay Selegiline HCI ([4]; Frozen storage temperature −25 ° C. prior to drying, 1 week): 4.85 mg
- Assay Selegiline HCI ([4]; Frozen storage temperature −25 ° C. prior to drying, 2 week): 4.79 mg
- Assay Selegiline HCI ([4]; Frozen storage temperature −25 ° C. prior to drying, 4 week): 4.74 mg
- Assay Selegiline HCI ([4]; Frozen storage temperature −25 ° C. prior to drying, Time = 0): 4.87 mg
